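Following 48 hours of exposure in 96-well plates, responses at five concentrations were used to interpolate endpoints linearly. TGI denotes the concentration required for complete inhibition of growth.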
What was measured:
Assay in all cases: growth of human tumour cells (NCI), 48 h
SF-268 CNS = tested on: SF-268 CNS
DU-145 prostate = tested on: DU-145 prostate
U251 CNS = tested on: U251 CNS
MOLT-4 leukemia = tested on: MOLT-4 leukemia
MDA-MB-231 breast = tested on: MDA-MB-231 breast
ACHN renal = tested on: ACHN renal
MDA-N = tested on: MDA-N
NCI-H522 lung = tested on: NCI-H522 lung
T-47D breast = tested on: T-47D breast
HOP-92 NSCLC = tested on: HOP-92 NSCLC
RXF 393 renal = tested on: RXF 393 renal
SK-MEL-28 melanoma = tested on: SK-MEL-28 melanoma
786-0 renal = tested on: 786-0 renal
UO-31 renal = tested on: UO-31 renal
SF-539 CNS = tested on: SF-539 CNS
MALME-3M melanoma = tested on: MALME-3M melanoma
CAKI-1 renal = tested on: CAKI-1 renal
HCC-2998 colon = tested on: HCC-2998 colon
SF-295 CNS = tested on: SF-295 CNS
EKVX NSCLC = tested on: EKVX NSCLC
SK-MEL-2 melanoma = tested on: SK-MEL-2 melanoma
K-562 leukemia = tested on: K-562 leukemia
SW-620 colon = tested on: SW-620 colon
NCI-H226 lung = tested on: NCI-H226 lung
OVCAR-4 ovarian = tested on: OVCAR-4 ovarian
BT-549 breast = tested on: BT-549 breast
KM12 colon = tested on: KM12 colon
M14 melanoma = tested on: M14 melanoma
IGROV1 ovarian = tested on: IGROV1 ovarian
RPMI-8226 leukemia = tested on: RPMI-8226 leukemia
MCF7 breast = tested on: MCF7 breast
SR leukemia = tested on: SR leukemia
UACC-257 melanoma = tested on: UACC-257 melanoma
LOX IMVI melanoma = tested on: LOX IMVI melanoma
OVCAR-8 ovarian = tested on: OVCAR-8 ovarian
SK-MEL-5 melanoma = tested on: SK-MEL-5 melanoma
MDA-MB-435 = tested on: MDA-MB-435
SNB-19 CNS = tested on: SNB-19 CNS
UACC-62 melanoma = tested on: UACC-62 melanoma
HS 578T breast = tested on: HS 578T breast
HCT-15 colon = tested on: HCT-15 colon
PC-3 prostate = tested on: PC-3 prostate
COLO 205 colon = tested on: COLO 205 colon
NCI-H460 lung = tested on: NCI-H460 lung
A549 NSCLC = tested on: A549 NSCLC
SNB-75 CNS = tested on: SNB-75 CNS
CCRF-CEM leukemia = tested on: CCRF-CEM leukemia
HL-60(TB) leukemia = tested on: HL-60(TB) leukemia
NCI/ADR-RES ovarian = tested on: NCI/ADR-RES ovarian
OVCAR-3 ovarian = tested on: OVCAR-3 ovarian
OVCAR-5 ovarian = tested on: OVCAR-5 ovarian
HCT-116 colon = tested on: HCT-116 colon
HT29 colon = tested on: HT29 colon
SN12C renal = tested on: SN12C renal
TK-10 renal = tested on: TK-10 renal
SK-OV-3 ovarian = tested on: SK-OV-3 ovarian
NCI-H23 lung = tested on: NCI-H23 lung

`Cc1cc(S(=O)(=O)Nc2nc3ccccc3n2-c2ccccc2)c(S)cc1Cl` was tested, and the TGI (SF-268 CNS) was greater than 100 µM, the TGI (DU-145 prostate) was greater than 100 µM and the TGI (U251 CNS) was greater than 100 µM. For the same compound, the TGI (MOLT-4 leukemia) was greater than 100 µM, the TGI (MDA-MB-231 breast) was greater than 100 µM and the TGI (ACHN renal) was greater than 100 µM. It also gave a TGI (MDA-N) greater than 100 µM, a TGI (NCI-H522 lung) greater than 100 µM and a TGI (T-47D breast) greater than 100 µM. For the same compound, the TGI (HOP-92 NSCLC) was greater than 100 µM, the TGI (RXF 393 renal) was greater than 100 µM and the TGI (SK-MEL-28 melanoma) was greater than 100 µM. For the same compound, the TGI (786-0 renal) was greater than 100 µM, the TGI (UO-31 renal) was greater than 100 µM and the TGI (SF-539 CNS) was greater than 100 µM. It also gave a TGI (MALME-3M melanoma) greater than 100 µM, a TGI (CAKI-1 renal) greater than 100 µM and a TGI (HCC-2998 colon) greater than 100 µM. For the same compound, the TGI (SF-295 CNS) was greater than 100 µM, the TGI (EKVX NSCLC) was greater than 100 µM and the TGI (SK-MEL-2 melanoma) was greater than 100 µM. It also gave a TGI (K-562 leukemia) greater than 100 µM, a TGI (SW-620 colon) greater than 100 µM and a TGI (NCI-H226 lung) greater than 100 µM. It also gave a TGI (OVCAR-4 ovarian) greater than 100 µM, a TGI (BT-549 breast) greater than 100 µM and a TGI (KM12 colon) greater than 100 µM. The TGI (M14 melanoma) was greater than 100 µM, the TGI (IGROV1 ovarian) was greater than 100 µM and the TGI (RPMI-8226 leukemia) was greater than 100 µM. For the same compound, the TGI (MCF7 breast) was greater than 100 µM, the TGI (SR leukemia) was greater than 100 µM and the TGI (UACC-257 melanoma) was greater than 100 µM. For the same compound, the TGI (LOX IMVI melanoma) was greater than 100 µM, the TGI (OVCAR-8 ovarian) was greater than 100 µM and the TGI (SK-MEL-5 melanoma) was greater than 100 µM. The TGI (MDA-MB-435) was greater than 100 µM, the TGI (SNB-19 CNS) was greater than 100 µM and the TGI (UACC-62 melanoma) was greater than 100 µM. It also gave a TGI (HS 578T breast) greater than 100 µM, a TGI (HCT-15 colon) greater than 100 µM and a TGI (PC-3 prostate) greater than 100 µM. For the same compound, the TGI (COLO 205 colon) was greater than 100 µM, the TGI (NCI-H460 lung) was greater than 100 µM and the TGI (A549 NSCLC) was greater than 100 µM. The TGI (SNB-75 CNS) was greater than 100 µM, the TGI (CCRF-CEM leukemia) was greater than 100 µM and the TGI (HL-60(TB) leukemia) was greater than 100 µM. It also gave a TGI (NCI/ADR-RES ovarian) greater than 100 µM, a TGI (OVCAR-3 ovarian) greater than 100 µM and a TGI (OVCAR-5 ovarian) greater than 100 µM. For the same compound, the TGI (HCT-116 colon) was greater than 100 µM.
With `C=CC(C)(C)c1cc([C@@H]2COc3cc(O)ccc3C2=O)c(O)c(O)c1OC` the TGI (SF-268 CNS) was 37.4 µM, the TGI (HT29 colon) was 47.4 µM and the TGI (DU-145 prostate) was 46.2 µM. The TGI (U251 CNS) was 40.6 µM, the TGI (MOLT-4 leukemia) was greater than 100 µM and the TGI (MDA-MB-231 breast) was 57.5 µM. The TGI (ACHN renal) was 31.4 µM, the TGI (MDA-N) was 51 µM and the TGI (NCI-H522 lung) was 38.1 µM. It also gave a TGI (T-47D breast) of 62.3 µM, a TGI (HOP-92 NSCLC) of 49.4 µM and a TGI (RXF 393 renal) of 21.1 µM. The TGI (SK-MEL-28 melanoma) was 67.2 µM, the TGI (786-0 renal) was 31.6 µM and the TGI (UO-31 renal) was 35.4 µM. For the same compound, the TGI (SF-539 CNS) was 57.9 µM, the TGI (SN12C renal) was 37.6 µM and the TGI (MALME-3M melanoma) was 93.6 µM. It also gave a TGI (CAKI-1 renal) of 27.4 µM, a TGI (HCC-2998 colon) greater than 100 µM and a TGI (SF-295 CNS) greater than 100 µM. It also gave a TGI (TK-10 renal) greater than 100 µM, a TGI (EKVX NSCLC) of 99.4 µM and a TGI (SK-MEL-2 melanoma) of 45.8 µM. For the same compound, the TGI (K-562 leukemia) was greater than 100 µM, the TGI (SW-620 colon) was greater than 100 µM and the TGI (NCI-H226 lung) was greater than 100 µM. For the same compound, the TGI (OVCAR-4 ovarian) was 34.2 µM, the TGI (BT-549 breast) was 32.7 µM and the TGI (KM12 colon) was 40.7 µM. The TGI (M14 melanoma) was 46.5 µM, the TGI (MCF7 breast) was 32.5 µM and the TGI (SR leukemia) was greater than 100 µM. For the same compound, the TGI (SK-OV-3 ovarian) was 61 µM, the TGI (UACC-257 melanoma) was greater than 100 µM and the TGI (LOX IMVI melanoma) was 66.8 µM. For the same compound, the TGI (OVCAR-8 ovarian) was 30.9 µM, the TGI (SK-MEL-5 melanoma) was 41.1 µM and the TGI (MDA-MB-435) was 39.2 µM. For the same compound, the TGI (SNB-19 CNS) was 49 µM, the TGI (UACC-62 melanoma) was 34.4 µM and the TGI (HS 578T breast) was greater than 100 µM. For the same compound, the TGI (HCT-15 colon) was 32 µM, the TGI (PC-3 prostate) was 34.7 µM and the TGI (COLO 205 colon) was 63 µM. The TGI (NCI-H460 lung) was greater than 100 µM, the TGI (A549 NSCLC) was greater than 100 µM and the TGI (NCI-H23 lung) was 34 µM. It also gave a TGI (SNB-75 CNS) of 56.6 µM, a TGI (CCRF-CEM leukemia) greater than 100 µM and a TGI (HL-60(TB) leukemia) of 73.3 µM. For the same compound, the TGI (NCI/ADR-RES ovarian) was 64.3 µM, the TGI (OVCAR-3 ovarian) was 29.3 µM and the TGI (OVCAR-5 ovarian) was greater than 100 µM. The TGI (HCT-116 colon) was 32.6 µM.

Reference: PubChem BioAssay (NCI)
